{
  "source": "patent US20150202179A1",
  "about": "“FATTY ACID DERIVATIVES FOR USE IN A METHOD OF TREATING DEPRESSION AND ASSOCIATED CONDITIONS” (YISSUM RESEARCH DEVELOPMENT COMPANY OF THE HEBREW …, priority 2012, published 2015)",
  "key": {"[1]": {"assay": "Tail Suspension Test, compound X dose study", "format": "in vivo, BALB/c mice", "conditions": "10 mg/kg i.p.; day 23; more than imipramine and other concentrations", "source_text": "Tail suspension test (TST): Animals are suspended upside down by adhesive tape placed 1 cm from the tail tip. The elevation of the animal is 50 cm from the nearest surface. […] Statistical analysis compares the magnitude of immobility (in seconds) between different treatment groups. In this test, antidepressants characteristically cause an increase of the time fraction spent by the animal as active at the expense of the inactivity period.\n(§1) 50, 2 month old BALB/c mice, 10 mice per group, on ad libitum diet were divided to 5 experimental groups with equal weight. On the 2, 3, 4, 5, 9, 11, 16, 18, 23, 25, 29, 31 days mice were administered with either vehicle or compound x 0.1, 1, 10 mg/kg i.p. or imipramine 10 mg/kg."}, "[2]": {"assay": "Body weight of C57BL/6 mice", "format": "in vivo", "source_text": "Thus the compounds of the invention can be used to treat conditions that are mediated by the enhancement of leptin levels. In obesity there is high leptin level however the leptin receptors are not responding. High CNS leptin level has anti-depression effect however, if there is tolerance there is no anti depression effect."}, "[3]": {"assay": "Forced Swim Test (FST), separated BALB/c mice", "format": "in vivo", "conditions": "compounds 1 mg/kg i.p., imipramine 10 mg/kg i.p.; day 8; in relation to vehicle", "description": "(§2) Forced swim test (FST): The animal is placed in a circular, transparent, plexiglass tank measuring 21 cm in diameter and 46 cm in height containing water 15 cm high, maintained at 23-25° C. […] Also measured is the latency period, the time elapsing, for each animal from immersion in the water tank until the first occurrence of immobility. Since climbing activity is minimal in mice, […].\n(§3) 50, 2 month old female BALB/c mice, 10 mice per group, on ad libitum diet were separated (each mouse in a different cage) for 9 days (Separation Stress, a model for depression). On the 7, 8, 9, 34-40 days mice were administered with either vehicle or compounds x, 12 and 15 (1 mg/kg i.p.) or imipramine 10 mg/kg (antidepressant) i.p. and tested in the forced swim test (FST) on day 8."}, "p-SAPK/JNK": {"test_system": "p-SAPK/JNK", "assay": "p-SAPK/JNK levels in the hypothalamus", "format": "in vivo, BALB/c mice", "conditions": "FIG. 16", "source_text": "50, 2 month old female BALB/c mice, 10 mice per group, on ad libitum diet were separated (each mouse in a different cage) for 9 days (Separation Stress, a model for depression)."}, "[4]": {"test_system": "Norepinephrine (NE) levels", "assay": "Norepinephrine (NE) determination in brain tissue by HPLC with electrochemical detection", "format": "in vivo, mice", "conditions": "for NE: ng/g wet tissue +/− SEM; for norepinephrine levels in the hippocampus vs. control / norepinephrine levels in the hypothalamus vs. control: result in words", "description": "Solution of DHBA as internal standard in the concentration of: 1 μg/ml in 0.1M perchloric acid, were prepared. Standard solutions of NE and 5HT in the concentration of 1-0.1 μg/ml in 0.1M perchloric acid were prepared.\nTissues (hypothalamus and hippocampus) obtained from 6-8 mice were dissected on ice surface and kept at −80 C. Hypothalamus (HT) or hippocampus (HC) from 1 mice were weighted (weight of HT −10-20 mg, HC 30-40 mg) and placed in eppendorf micro-centrifuge tube, 1.5 ml. To each tube was added 120-160 μl of ice cold solution of Perchloric acid and DHBA, homogenized in ice bath on Sonics vibra cell, 3×20 sec., 0.4 watts and centrifuged at 14,000×g at 4° C. 10 min. Supernatant gained was stored in ice before analysis.\nThe HPLC system consisted of Jasco PU-980 pump, Jasco AS-950-10 autosampler cooled at 4° C., H3 ODS-125A 3 μm 125 mm×4.6 mm i.d. analytical column (Hichrom, UK) were used. Electrochemical detector Coulochem ESA 5100A with analytical cell model 5011 was used for control detector voltage and record the current. Working electrode was set at potential +350 mV. Control and data collection/processing were handled through Borwin chromatography software.\nThe mobile phase composition: A stock buffer was prepared as follows: 20 mM sodium dihydrogenorthophosphate, EDTA 3 mg/l, 1-heptanesulfonic acid 1 g/l were dissolved in 1 liter deionized distilled water and buffered to pH 3.7 using concentrated phosphoric acid. To prepare the mobile phase buffer was mixed with acetonitrile (Baker HPLC analyzed) in the ratio 85:15 (v/v), filtered through a 0.2 μm membrane filter and degassed under vacuum after mixing. Mobile phase flow rate 1 ml/min. Injection volume 20 μl, retention time for DHBA 4.2 min., norepinephrine—3.1 min., 5HT 8.6 min. For calibration curve 1 ug/ml solution of DHBA together with 1.0-0.1 μg/ml solutions of 5HT and NE were used. The ratio between 5HT or NE and DHBA used to calculate the level of 5HT and NE in the sample. Date are given in ng/g wet tissue +/−SEM."}, "POMC protein": {"test_system": "POMC protein", "assay": "POMC protein expression by western blot", "format": "in vivo, BALB/c mice", "description": "as §3, with “(antidepressant). POMC protein was monitored by western blot.” for “(antidepressant) i.p. and tested in the forced swim test (FST) on day 8.”"}, "[5]": {"assay": "Forced Swim Test, compound X dose study", "format": "in vivo, BALB/c mice", "conditions": "day 11", "description": "as §2\nas §1, with “compound X” for “compound x”, “mg/kg. Forced Swim Test was evaluated on day 11.” for “mg/kg.”"}},
  "data": [
    {"smiles": "CCCCCCCC/C=C\\CCCCCCCC(=O)N[C@H](CO)C(C)C", "note": "[Compound 1, oleoyl-L-valinol amide]", "values": [
      {"measurement": "motor activity in Tail Suspension Test", "setting": "[1]", "value": "improved significantly motor activity"},
      {"measurement": "body weight", "setting": "[2]", "value": "decreased body weight"},
      {"measurement": "swimming activity in forced swim test", "setting": "[3]", "value": "significantly enhanced swimming activity"},
      {"measurement": "p-SAPK/JNK levels in the hypothalamus", "setting": "p-SAPK/JNK", "value": "significant decrease"},
      {"measurement": "NE", "setting": "[4]; Hippocampus", "value": "283.28 ± 24", "unit": "ng/g"},
      {"measurement": "NE", "setting": "[4]; Hypothalamus", "value": "1090 ± 10.4", "unit": "ng/g"},
      {"measurement": "norepinephrine levels in the hippocampus vs. control", "setting": "[4]", "value": "significantly enhanced"},
      {"measurement": "norepinephrine levels in the hippocampus vs. control", "setting": "[4]; listed as X", "value": "increase significantly"},
      {"measurement": "norepinephrine levels in the hypothalamus vs. control", "setting": "[4]", "value": "significantly enhanced"},
      {"measurement": "norepinephrine levels in the hypothalamus vs. control", "setting": "[4]; listed as X", "value": "increased significantly"},
      {"measurement": "POMC protein expression in the hippocampus", "setting": "POMC protein; hippocampus, FIG. 12", "value": "increased significantly"},
      {"measurement": "POMC protein expression in the hypothalamus", "setting": "POMC protein; hypothalamus, FIG. 11", "value": "increased significantly"},
      {"measurement": "swimming activity in forced swim test", "setting": "[5]; 0.1 mg/kg i.p.", "value": "improved significantly swimming activity"},
      {"measurement": "swimming activity in forced swim test", "setting": "[5]; 1 mg/kg i.p., better than imipramine 10 mg/kg", "value": "improved significantly swimming activity"},
      {"measurement": "swimming activity in forced swim test", "setting": "[5]; 10 mg/kg i.p., better than imipramine 10 mg/kg", "value": "improved significantly swimming activity"}
    ]}
  ]
}
